In patent US11759460B2, “Method of local antibiotic treatment of infective endocarditis” (priority 2020, dated 2023):
Values after ≈ are worked out from the molar mass of the structure shown. “Also recorded” adds a separate entry of the source. Read-outs that look alike come from different tables or passages of the source.

Assays:
S. aureus biofilms = assay: Single antibiotic treatment of S. aureus biofilms (SGT method); assay type: cell-based, Staphylococcus aureus; conditions: for biofilm bactericidal concentration (BBC): S. aureus biofilms grown 48 h, 24 h treatment, 3 log10 CFU (99.9%) reduction vs control
Description: (§1) FIGS. 1A and 1B illustrates effects of different antibiotics tested in a dose-dependent manner against bacterial biofilms of different isolates of S. aureus and E. faecalis using only one antibiotic per treatment to screen the effect of the single antibiotics against bacterial biofilms. The graphs show the decadic logarithm of the colony forming units (log10 CFU) of either S. aureus or E. faecalis on the ordinate in relation to the concentration of various antibiotics on the abscissa. Data points belonging to one antibiotic were connected by lines for clarity. In each graph, the dashed line reflects the biofilm bactericidal concentration (BBC), defined as the target of 3 log10 CFU below the control, i.e. the log10 CFU of untreated biofilms (shown at the antibiotic concentration of 0 mg/L), which needs to be undercut to achieve a meaningful suppression of the bacteria in a biofilm of ≥99.9%. The line graphs intersecting this line indicate the antibiotics' concentrations that need to be applied for effective treatment in S. aureus and E. faecalis biofilms. […] For instance, the BBC of rifampicin against S. aureus is ˜4 mg/L; the BBC of dalbavancin is ˜32 mg/L against E. faecalis in biofilms.
FIGS. 1A and 1B illustrate the effect of different antibiotics tested in a dose-depended manner against bacterial biofilms of different bacterial isolates of S. aureus and E. faecalis using only one antibiotic per treatment to screen the effect of the single antibiotics against bacterial biofilms. To obtain the results the inventors used four strains of S. aureus, i.e. three patient isolates and one reference strain, and three strains of E. faecalis, i.e. two isolates from patients as well as one reference strain. In order to test the different antibiotics individually against the bacterial biofilms, the inventors incubated bacterial suspensions of E. faecalis and S. aureus strains in a 96 well microtiter plate for biofilm formation for 48 hours in a humidified modified atmosphere at 37° C. and 5% CO2 without shaking. For the antibiotic treatment of the biofilms the supernatant of each well was removed and the antibiotic treatment with the individual antibiotics to be tested was added to the biofilms and incubated for 24 hours at the same conditions. The number of bacteria in each well after the 24-hour treatment was determined via so called start-growth-time (SGT) method, where the bacterial regrowth of the dispersed bacteria from the biofilms was measured in an incubation chamber of a plate reader over time. Lower bacteria densities lead to a longer regrowth time to reach a certain threshold compared to controls. Each treatment for each strain was performed in three technical replicates. […]

planktonic S. aureus = assay: Minimal inhibitory concentration for planktonic S. aureus; assay type: cell-based; conditions: Staphylococcus aureus
[1] = cited from earlier work
[2] = tested on: planctonic Enterococcus faecalis; assay: Minimal inhibitory concentration for planktonic Enterococcus faecalis; assay type: cell-based
E. faecalis biofilms = assay: Single antibiotic treatment of E. faecalis biofilms (SGT method); assay type: cell-based, Enterococcus faecalis; conditions: for biofilm bactericidal concentration (BBC): E. faecalis biofilms grown 48 h, 24 h treatment, 3 log10 CFU (99.9%) reduction vs control
Description: as §1
FIGS. 1A and 1B illustrate the effect of different antibiotics tested in a dose-depended manner against bacterial biofilms of different bacterial isolates of S. aureus and E. faecalis using only one antibiotic per treatment to screen the effect of the single antibiotics against bacterial biofilms. To obtain the results the inventors used four strains of S. aureus, i.e. three patient isolates and one reference strain, and three strains of E. faecalis, i.e. two isolates from patients as well as one reference strain. […] The number of bacteria in each well after the 24-hour treatment was determined via so called start-growth-time (SGT) method, where the bacterial regrowth of the dispersed bacteria from the biofilms was measured in an incubation chamber of a plate reader over time. […]

[3] = systemic therapy, 'believed to be'

Row | MIC (planktonic S. aureus) [µg/mL] | SMILES | biofilm bactericidal concentration (BBC) (S. aureus biofilms) | biofilm bactericidal concentration (BBC) (E. faecalis biofilms) | approximate concentration in tissue with systemic therapy [1, 3] [mg/L] | other results
1 | – | NCC[C@H](O)C(=O)N[C@@H]1C[C@H](N)[C@@H](O[C@H]2O[C@H](CN)[C@@H](O)[C@H](O)[C@H]2O)[C@H](O)[C@H]1O[C@H]1O[C@H](CO)[C@@H](O)[C@H](N)[C@H]1O [Amikacin, amikacin] | > 512 mg/L | – | – | –
2 | ~0.25 (≈ 0.154 µM) | CCCCCCCCCC(=O)N[C@@H](Cc1c[nH]c2ccccc12)C(=O)N[C@H](CC(N)=O)C(=O)N[C@@H](CC(=O)O)C(=O)N[C@@H]1C(=O)NCC(=O)N[C@@H](CCCN)C(=O)N[C@@H](CC(=O)O)C(=O)N[C@H](C)C(=O)N[C@@H](CC(=O)O)C(=O)NCC(=O)N[C@H](CO)C(=O)N[C@@H]([C@H](C)CC(=O)O)C(=O)N[C@@H](CC(=O)c2ccccc2N)C(=O)O[C@@H]1C [daptomycin] | – | about 32 mg/L | – | approximate concentration in tissue with systemic therapy ([1]; in vivo): ~4 mg/L; MIC [2]: ~0.25 µg/mL (≈ 0.154 µM); suppression of bacteria in biofilms (in words) (E. faecalis biofilms; E. faecalis biofilms, single antibiotic): can suppress the bacteria sufficiently; also recorded: highest potency; suppression of bacteria in biofilms (in words) (S. aureus biofilms; S. aureus biofilms, single antibiotic): can suppress the bacteria sufficiently; also recorded: highest potency
3 | – | CN[C@H](CC(C)C)C(=O)N[C@H]1C(=O)N[C@@H](CC(N)=O)C(=O)N[C@H]2C(=O)N[C@H]3C(=O)N[C@H](C(=O)N[C@H](C(=O)O)c4cc(O)cc(O)c4-c4cc3ccc4O)[C@H](O)c3ccc(c(Cl)c3)Oc3cc2cc(c3O[C@@H]2O[C@H](CO)[C@@H](O)[C@H](O)[C@H]2O[C@H]2C[C@](C)(N)[C@H](O)[C@H](C)O2)Oc2ccc(cc2Cl)[C@H]1O [vancomycin] | – | – | ~1 | –
4 | ~0.004 (≈ 0.00486 µM) | CO[C@H]1/C=C/O[C@@]2(C)Oc3c(C)c(O)c4c(O)c(c(/C=N/N5CCN(C)CC5)c(O)c4c3C2=O)NC(=O)/C(C)=C\C=C\[C@H](C)[C@H](O)[C@@H](C)[C@@H](O)[C@@H](C)[C@H](OC(C)=O)[C@@H]1C [rifampicin] | ~4 mg/L | – | ~1 | –
5 | – | CN[C@H]1C(=O)N[C@@H]2Cc3ccc(cc3)Oc3cc4cc(c3O[C@@H]3O[C@H](C(=O)O)[C@@H](O)[C@H](O)[C@H]3NC(=O)CCCCCCCCC(C)C)Oc3ccc(cc3Cl)[C@@H](O)[C@@H]3NC(=O)[C@H](NC(=O)[C@@H]4NC(=O)[C@@H](NC2=O)c2cc(cc(O)c2Cl)Oc2cc1ccc2O)c1ccc(O)c(c1)-c1c(O[C@H]2O[C@H](CO)[C@@H](O)[C@H](O)[C@@H]2O)cc(O)cc1[C@@H](C(=O)NCCCN(C)C)NC3=O [dalbavancin] | about 4 mg/L | – | – | –
6 | – | C[C@@H]1O[C@@H]1P(=O)(O)O [phosphomycin] | – | > 1024 mg/L | – | –
